In patent US9303062B2, “Solid oxidized glutathione salt and method for producing same” (priority 2011, dated 2016):

Tests used:
[1] = Solubility in water at 25° C. under normal pressure; type: physicochemical; settings: supernatant by HPLC
Procedure: The solubility of the solid oxidized glutathione salt of the present invention in water at temperature of 25° C. can be calculated according to the following formula, and the solubility is, for example, 10 mass % or more, preferably 20 mass % or more, and more preferably 30 mass % or more.
Solubility (%)=mass of dissolved oxidized glutathione/(mass of water+mass of dissolved oxidized glutathione)×100
Evaluation 1: Solubility in water at 25° C. under normal pressure and deliquescency of oxidized glutathione salt
Each of the powders of the solid-state oxidized glutathione salt obtained in the above respective Examples was dissolved in water until the powder was not further dissolved. After each slurry was stirred for 30 minutes or longer, the supernatant was obtained and the concentrations of each oxidized glutathione and salt were calculated using HPLC. For comparison, the solubilities of the following conventionally known solid oxidized glutathiones were investigated in the same manner as the above.

[2] = Deliquescency of powder at 25° C., normal pressure, 75% RH, observed with naked eyes; type: physicochemical; settings: relative humidity 75% RH
Procedure: The solid oxidized glutathione salt obtained as described above has low deliquescency and high water solubility. The deliquescency of the solid oxidized glutathione can be evaluated by allowing a powder of the salt to stand in an environment at a temperature of 25° C., normal pressure, e.g. 1 atmospheric pressure, and a relative humidity of 75% RH, and observing whether deliquescence starts or not with naked eyes.
Each of the powders of the solid-state oxidized glutathione salt obtained in the above respective Examples was allowed to stand in atmospheric condition of a temperature of 25° C., normal pressure and a relative humidity of 75% RH. After 2 hours or 24 hours, it was determined whether or not deliquescence was is present by observing the occurrence of shape change with naked eyes. For comparison, the deliquescencies of the above commercially available solid oxidized glutathiones were investigated in the same manner.

Row | Substance | Solubility [1] | Deliquescency 2 hours ([2]; after 2 hours) | Deliquescency 24 hours ([2]; after 24 hours)
1 | oxidized glutathione hemicalcium salt [Example 6] | 58 mass % | no | no
2 | oxidized glutathione monoammonium salt [Example 2] | 34.8 mass % |  | 
